Source: ChEMBL document CHEMBL4052584, “Toward Understanding the Structural Basis of Partial Agonism at the Dopamine D3 Receptor” (J Med Chem, 2017)
Active and inactive are the calls of the source. The calls are words filed in the database; no cut-off is given here.

Columns and labels:
D(3) dopamine receptor [1] = target: T1, D(3) dopamine receptor (Homo sapiens, UniProt P35462); assay: Partial agonist activity at dopamine D3 receptor (unknown origin) expressed in HEK293 cells at 10 pM to 100 uM after 2 mins by BRET-based Go activation assay relative to dopamine; format: cell-based; settings: for Emax: 10 pM
D(3) dopamine receptor [2] = target: T1, D(3) dopamine receptor; assay: Displacement of [3H]-N-methylspiperone from human dopamine D3 receptor expressed in HEK293 cells after 1 hr by MicroBeta microplate counting method; format: cell-based
Homo sapiens = organism: Homo sapiens; assay: Selectivity ratio of Ki for human dopamine D2 receptor to Ki for human dopamine D3 receptor
D(3) dopamine receptor [3] = target: T1, D(3) dopamine receptor; assay: Partial agonist activity at dopamine D3 receptor (unknown origin) expressed in HEK293 cells at 10 pM to 100 uM after 30 mins by beta-arrestin recruitment assay relative to dopamine; format: cell-based
D(2) dopamine receptor = D(2) dopamine receptor (Homo sapiens, UniProt P14416); assay: Displacement of [3H]-N-methylspiperone from human dopamine D2 receptor expressed in HEK293 cells after 1 hr by MicroBeta microplate counting method; format: cell-based
Chain of D(2) dopamine receptor (P14416 whole entry): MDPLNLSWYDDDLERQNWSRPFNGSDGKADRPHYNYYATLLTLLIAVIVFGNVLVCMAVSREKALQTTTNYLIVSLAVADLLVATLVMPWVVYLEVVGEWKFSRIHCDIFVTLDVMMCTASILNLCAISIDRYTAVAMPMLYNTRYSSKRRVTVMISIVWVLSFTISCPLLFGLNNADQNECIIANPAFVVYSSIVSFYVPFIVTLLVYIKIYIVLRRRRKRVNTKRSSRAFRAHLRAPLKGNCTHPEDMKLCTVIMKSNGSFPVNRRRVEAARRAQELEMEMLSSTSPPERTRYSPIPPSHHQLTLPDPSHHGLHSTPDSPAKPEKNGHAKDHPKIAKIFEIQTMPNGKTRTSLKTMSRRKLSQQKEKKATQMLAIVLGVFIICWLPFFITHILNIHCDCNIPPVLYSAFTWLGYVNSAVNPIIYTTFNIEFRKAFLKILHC

T1 sequence (P35462 whole entry): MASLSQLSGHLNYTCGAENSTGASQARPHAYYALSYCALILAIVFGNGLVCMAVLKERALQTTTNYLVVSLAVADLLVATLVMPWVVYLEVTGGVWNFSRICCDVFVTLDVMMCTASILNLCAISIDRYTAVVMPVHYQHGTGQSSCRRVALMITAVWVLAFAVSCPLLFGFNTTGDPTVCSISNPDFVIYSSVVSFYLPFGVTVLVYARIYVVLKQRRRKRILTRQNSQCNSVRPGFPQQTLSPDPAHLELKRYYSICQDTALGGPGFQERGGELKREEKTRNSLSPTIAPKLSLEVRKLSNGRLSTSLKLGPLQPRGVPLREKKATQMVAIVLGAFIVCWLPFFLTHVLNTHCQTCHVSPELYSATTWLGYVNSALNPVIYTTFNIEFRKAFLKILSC

| Structure (SMILES) | Emax (D(3) dopamine receptor [1]) [%] | Ki (D(3) dopamine receptor [2]) [µM] | Ratio Ki (Homo sapiens) | Activity (D(3) dopamine receptor [3]) | Ki (D(2) dopamine receptor) [µM] | Activity (D(3) dopamine receptor [1]; 10 pM to 100 uM) |
| --- | --- | --- | --- | --- | --- | --- |
| CC[C@H](O)CN1CCN(c2cccc(Cl)c2Cl)CC1 | 58.6 | 0.0343 | 3 | Active | 0.0931 | – |
| O=C(NCC[C@H](O)CN1CCN(c2cccc(Cl)c2Cl)CC1)c1cnc2ccccc2c1 | 53.9 | 0.0234 | 14 | Active | 0.316 | – |
| CCCCN1CCN(c2cccc(Cl)c2Cl)CC1 | – | – | 2 | – | – | inactive |
| O=C(NCC[C@@H](O)CN1CCN(c2cccc(Cl)c2Cl)CC1)c1cc2ccccc2[nH]1 | 14.9 | – | – | inactive | – | – |
| CC[C@@H](O)CN1CCN(c2cccc(Cl)c2Cl)CC1 | 11.6 | 0.119 | 5 | inactive | 0.588 | – |
| O=C(NCCC(O)CN1CCN(c2cccc(Cl)c2Cl)CC1)c1cnc2ccccc2c1 (racemic) | – | 0.00426 | 63 | – | 0.268 | – |
| O=C(NCC[C@H](O)CN1CCN(c2cccc(Cl)c2Cl)CC1)c1cc2ccccc2[nH]1 | 55.7 | – | – | Active | – | – |
| O=C(NCCCCN1CCN(c2cccc(Cl)c2Cl)CC1)c1cnc2ccccc2c1 | 20.9 | 0.000172 | 58 | – | 0.01 | – |
| O=C(NCC[C@@H](O)CN1CCN(c2cccc(Cl)c2Cl)CC1)c1cnc2ccccc2c1 | 19.9 | 0.00412 | 49 | inactive | 0.202 | – |
| C[C@@H](O)CN1CCN(c2cccc(Cl)c2Cl)CC1 | – | 0.373 | 4 | – | 1.4 | – |
| C[C@H](O)CN1CCN(c2cccc(Cl)c2Cl)CC1 | – | 0.0752 | 4 | – | 0.317 | – |
